Measured values: the CheMixHub viscosity set

Assay: xn = mol fraction of the nth substance listed

[K+].[O-][Cl+2]([O-])[O-] + O
viscosity [mPa·s], 100 kPa
Conditions | 293.15 K | 298.15 K | 303.15 K | 308.15 K | 313.15 K | 318.15 K
x1 = 0.000182 | 0.995 | 0.888 | 0.799 | 0.725 | 0.661 | 0.607
x1 = 0.0018 | 0.984 | 0.878 | 0.789 | 0.717 | 0.655 | 0.602
x1 = 0.003608 | 0.979 | 0.874 | 0.788 | 0.717 | 0.656 | 0.603
x1 = 0.005413 | 0.977 | 0.873 | 0.788 | 0.718 | 0.656 | 0.604
x1 = 0.00717 | 0.977 | 0.876 | 0.791 | 0.72 | 0.659 | 0.608
x1 = 0.008941 | 0.983 | 0.881 | 0.797 | 0.725 | 0.665 | 0.613

CS(C)=O + Cc1ccccc1
Conditions | viscosity [mPa·s]
298.15 K, 101 kPa, x1 = 0.1 | 0.606
298.15 K, 101 kPa, x1 = 0.2 | 0.675
298.15 K, 101 kPa, x1 = 0.3 | 0.761
298.15 K, 101 kPa, x1 = 0.4 | 0.867
298.15 K, 101 kPa, x1 = 0.5 | 0.99
298.15 K, 101 kPa, x1 = 0.6 | 1.122
298.15 K, 101 kPa, x1 = 0.7 | 1.268
298.15 K, 101 kPa, x1 = 0.8 | 1.452
298.15 K, 101 kPa, x1 = 0.9 | 1.679
298.15 K, 101.3 kPa, x1 = 0.1025 | 0.609
298.15 K, 101.3 kPa, x1 = 0.2029 | 0.671
298.15 K, 101.3 kPa, x1 = 0.3843 | 0.838
298.15 K, 101.3 kPa, x1 = 0.504 | 0.964
298.15 K, 101.3 kPa, x1 = 0.6035 | 1.095
298.15 K, 101.3 kPa, x1 = 0.7049 | 1.25
298.15 K, 101.3 kPa, x1 = 0.7997 | 1.43
298.15 K, 101.3 kPa, x1 = 0.9017 | 1.686
302.4 K, 101 kPa, x1 = 0.0908 | 1.087
302.4 K, 101 kPa, x1 = 0.2568 | 1.399
302.4 K, 101 kPa, x1 = 0.4732 | 1.615
302.4 K, 101 kPa, x1 = 0.5996 | 2.242
302.4 K, 101 kPa, x1 = 0.7139 | 2.506
302.4 K, 101 kPa, x1 = 0.8665 | 3.234
303.15 K, 101.3 kPa, x1 = 0.1025 | 0.574
303.15 K, 101.3 kPa, x1 = 0.2029 | 0.636
303.15 K, 101.3 kPa, x1 = 0.3843 | 0.777
303.15 K, 101.3 kPa, x1 = 0.504 | 0.894
303.15 K, 101.3 kPa, x1 = 0.6035 | 1.01
303.15 K, 101.3 kPa, x1 = 0.7049 | 1.149
303.15 K, 101.3 kPa, x1 = 0.7997 | 1.309
303.15 K, 101.3 kPa, x1 = 0.9017 | 1.526
308.15 K, 101 kPa, x1 = 0.1 | 0.537
308.15 K, 101 kPa, x1 = 0.2 | 0.594
308.15 K, 101 kPa, x1 = 0.3 | 0.664
308.15 K, 101 kPa, x1 = 0.4 | 0.741
308.15 K, 101 kPa, x1 = 0.5 | 0.833
308.15 K, 101 kPa, x1 = 0.6 | 0.937
308.15 K, 101 kPa, x1 = 0.7 | 1.065
308.15 K, 101 kPa, x1 = 0.8 | 1.217
308.15 K, 101 kPa, x1 = 0.9 | 1.407
308.15 K, 101.3 kPa, x1 = 0.1025 | 0.54
308.15 K, 101.3 kPa, x1 = 0.2029 | 0.598
308.15 K, 101.3 kPa, x1 = 0.3843 | 0.727
308.15 K, 101.3 kPa, x1 = 0.504 | 0.833
308.15 K, 101.3 kPa, x1 = 0.6035 | 0.963
308.15 K, 101.3 kPa, x1 = 0.7049 | 1.062
308.15 K, 101.3 kPa, x1 = 0.7997 | 1.204
308.15 K, 101.3 kPa, x1 = 0.9017 | 1.398
318.15 K, 101 kPa, x1 = 0.1 | 0.482
318.15 K, 101 kPa, x1 = 0.2 | 0.53
318.15 K, 101 kPa, x1 = 0.3 | 0.587
318.15 K, 101 kPa, x1 = 0.4 | 0.654
318.15 K, 101 kPa, x1 = 0.5 | 0.731
318.15 K, 101 kPa, x1 = 0.6 | 0.817
318.15 K, 101 kPa, x1 = 0.7 | 0.921
318.15 K, 101 kPa, x1 = 0.8 | 1.047
318.15 K, 101 kPa, x1 = 0.9 | 1.201

CS(C)=O + CCO
Conditions | viscosity [mPa·s]
293.15 K, 100 kPa, x2 = 0.08 | 2.021
293.15 K, 100 kPa, x2 = 0.16 | 1.873
293.15 K, 100 kPa, x2 = 0.23 | 1.756
293.15 K, 100 kPa, x2 = 0.3 | 1.666
293.15 K, 100 kPa, x2 = 0.36 | 1.572
298.15 K, 100 kPa, x2 = 0.08 | 1.828
298.15 K, 100 kPa, x2 = 0.16 | 1.701
298.15 K, 100 kPa, x2 = 0.23 | 1.598
298.15 K, 100 kPa, x2 = 0.3 | 1.517
298.15 K, 100 kPa, x2 = 0.36 | 1.436
298.15 K, 101 kPa, x1 = 0.061 | 1.182
298.15 K, 101 kPa, x1 = 0.2 | 1.291
298.15 K, 101 kPa, x1 = 0.37 | 1.466
298.15 K, 101.3 kPa, x1 = 0.0616 | 1.015
298.15 K, 101.3 kPa, x1 = 0.1286 | 1.021
298.15 K, 101.3 kPa, x1 = 0.2019 | 1.022
298.15 K, 101.3 kPa, x1 = 0.2801 | 1.056
298.15 K, 101.3 kPa, x1 = 0.3708 | 1.114
298.15 K, 101.3 kPa, x1 = 0.4693 | 1.187
298.15 K, 101.3 kPa, x1 = 0.5814 | 1.298
298.15 K, 101.3 kPa, x1 = 0.7023 | 1.454
298.15 K, 101.3 kPa, x1 = 0.7609 | 1.538
298.15 K, 101.3 kPa, x1 = 0.8414 | 1.657
298.15 K, 101.3 kPa, x1 = 0.933 | 1.851
298.15 K, 101.31 kPa, x1 = 0.1026 | 1.034
298.15 K, 101.31 kPa, x1 = 0.1971 | 1.029
298.15 K, 101.31 kPa, x1 = 0.2892 | 1.061
298.15 K, 101.31 kPa, x1 = 0.4043 | 1.137
298.15 K, 101.31 kPa, x1 = 0.5029 | 1.234
298.15 K, 101.31 kPa, x1 = 0.62 | 1.352
298.15 K, 101.31 kPa, x1 = 0.7117 | 1.491
298.15 K, 101.31 kPa, x1 = 0.8036 | 1.634
298.15 K, 101.31 kPa, x1 = 0.9017 | 1.807
299 K, 101 kPa, x1 = 0.0519 | 1.711
299 K, 101 kPa, x1 = 0.1593 | 1.696
299 K, 101 kPa, x1 = 0.3301 | 1.895
299 K, 101 kPa, x1 = 0.451 | 2.099
299 K, 101 kPa, x1 = 0.5779 | 2.34
299 K, 101 kPa, x1 = 0.7807 | 2.572
303.15 K, 100 kPa, x2 = 0.16 | 1.552
303.15 K, 100 kPa, x2 = 0.3 | 1.39
303.15 K, 100 kPa, x2 = 0.36 | 1.317
303.15 K, 101 kPa, x1 = 0.2 | 1.191
303.15 K, 101 kPa, x1 = 0.2004 | 1.205
303.15 K, 101 kPa, x1 = 0.37 | 1.366
303.15 K, 101.3 kPa, x1 = 0.0616 | 0.966
303.15 K, 101.3 kPa, x1 = 0.1286 | 0.932
303.15 K, 101.3 kPa, x1 = 0.2019 | 0.884
303.15 K, 101.3 kPa, x1 = 0.2801 | 0.904
303.15 K, 101.3 kPa, x1 = 0.3708 | 0.938
303.15 K, 101.3 kPa, x1 = 0.4693 | 1.064
303.15 K, 101.3 kPa, x1 = 0.5814 | 1.201
303.15 K, 101.3 kPa, x1 = 0.7023 | 1.354
303.15 K, 101.3 kPa, x1 = 0.7609 | 1.481
303.15 K, 101.3 kPa, x1 = 0.933 | 1.685
308.15 K, 100 kPa, x2 = 0.16 | 1.426
308.15 K, 100 kPa, x2 = 0.3 | 1.28
308.15 K, 100 kPa, x2 = 0.36 | 1.213
308.15 K, 101 kPa, x1 = 0.061 | 1.002
308.15 K, 101 kPa, x1 = 0.2 | 1.091
308.15 K, 101 kPa, x1 = 0.37 | 1.266
308.15 K, 101.31 kPa, x1 = 0.1026 | 0.882
308.15 K, 101.31 kPa, x1 = 0.1971 | 0.893
308.15 K, 101.31 kPa, x1 = 0.2892 | 0.916
308.15 K, 101.31 kPa, x1 = 0.4043 | 0.981
308.15 K, 101.31 kPa, x1 = 0.5029 | 1.056
308.15 K, 101.31 kPa, x1 = 0.62 | 1.159
308.15 K, 101.31 kPa, x1 = 0.7117 | 1.26
308.15 K, 101.31 kPa, x1 = 0.8036 | 1.375
308.15 K, 101.31 kPa, x1 = 0.9017 | 1.511
313.15 K, 100 kPa, x2 = 0.08 | 1.402
313.15 K, 100 kPa, x2 = 0.16 | 1.312
313.15 K, 100 kPa, x2 = 0.23 | 1.237
313.15 K, 100 kPa, x2 = 0.3 | 1.181
313.15 K, 100 kPa, x2 = 0.36 | 1.121
318.15 K, 101.31 kPa, x1 = 0.1026 | 0.745
318.15 K, 101.31 kPa, x1 = 0.1971 | 0.753
318.15 K, 101.31 kPa, x1 = 0.2892 | 0.782
318.15 K, 101.31 kPa, x1 = 0.4043 | 0.835
318.15 K, 101.31 kPa, x1 = 0.5029 | 0.908
318.15 K, 101.31 kPa, x1 = 0.62 | 0.994
318.15 K, 101.31 kPa, x1 = 0.7117 | 1.067
318.15 K, 101.31 kPa, x1 = 0.8036 | 1.171
318.15 K, 101.31 kPa, x1 = 0.9017 | 1.28
323.15 K, 101 kPa, x1 = 0.8011 | 1.125

CCCCC + CC1CCCCC1
viscosity [mPa·s], 101 kPa
Conditions | x2 = 0.0407 | x2 = 0.2014 | x2 = 0.2807 | x2 = 0.3471 | x2 = 0.4382 | x2 = 0.6005 | x2 = 0.681 | x2 = 0.7595 | x2 = 0.8406 | x2 = 0.9199
293.15 K | 0.2369 | 0.2738 | 0.2958 | 0.3151 | 0.3506 | 0.429 | 0.4775 | 0.5323 | 0.5947 | 0.6586
298.15 K | 0.2277 | 0.2567 | 0.2795 | 0.3014 | 0.337 | 0.4124 | 0.4571 | 0.5046 | 0.5587 | 0.6168
303.15 K | 0.1977 | 0.2381 | 0.2612 | 0.2824 | 0.3164 | 0.3885 | 0.431 | 0.4771 | 0.5299 | 0.5849
